The values below come from patent US20150225454A1, “TETRABRANCHED PEPTIDES AND ANALOGUES AS A NEW CLASS OF ANTIMICROBIALS AND THEIR PREPARATION THEREOF” (priority 2012, published 2015).

Structures are written as SMILES. Values after ≈ are worked out from the molar mass of the structure shown. “Also recorded” adds a separate entry of the source. Where two headings read alike, the source gives them in different places.

One series concerns rabbit red blood cells. Format: cell-based. How it is done:
Haemolytic activity of peptides and antifungal drugs were determined against rabbit red blood cells (Oren et al., 1997). Briefly, serial dilution of peptides/antifungals in PBS was mixed with rRBC (final concentration 4% v/v), incubated at 37° C. for 1 h and centrifuged at 3000 rpm for 10 minutes. The release of hemoglobin in the supernatant was monitored by measuring the hemoglobin absorbance at 576 nm. The readings from cell suspension in PBS (without any additives) or 1% Triton-X100 were used as 0% or 100% haemolysis.

Another series deals with fungi. To be noted: cited from earlier work.
The test system of a further series is C. albicans. Description: microbe, parasite or virus in culture. Format: cell-based. The protocol:
The yeast strains were cultivated and suspended in Sabouraud's Dextrose (SD) broth diluted at one sixth at a starting OD600=˜0.08 in a flat-bottomed microtitre plate. A serial dilution of peptide in the same broth was mixed with the inoculum to give a final peptide concentration of 0.4-22 μM. The antifungal activity was assessed by monitoring the OD600 in cycles of 30 minutes and an orbital shaking at 100 rpm using an Infinite M200 microplate reader (Tecan Group Ltd., Switzerland) for 24/48 h at 37° C. Cultures without peptides were used as positive controls and broth alone or with 22 μM peptide served as negative controls. The minimum concentration required for complete inhibition was assessed by both visible observations as well as by measuring the OD600 and taken as the MIC. Each experiment was repeated in triplicates.

In series [1] the test system is C. albicans (ATCC 10231 and DF2672R). It is filed as cell-based. The protocol: The time-kill kinetics was measured for two strains of C. albicans (ATCC 10231 and DF2672R). The cultures were grown overnight in SD broth and the cell concentration was adjusted to 10^5-10^6 CFU/ml with phosphate buffer. The peptide or antifungals were added to the individual cultures. […] The test solution was incubated at 37° C. with constant shaking. 100 μL of the suspension is withdrawn at predetermined time points, serially diluted (10^2 or 10^3 fold) and poured into the SDA plate. The plate was incubated for 48 h at 37° C. for colony counting. The data were expressed in terms of % cell viability relative to the positive control.

The test system of the next series is IOBA-NHC cells. It is filed as cell-based, human. To be noted: 24 h incubation; read-out: EC50 (concentration that reduces the viable cells by 50%). In short, it runs like this:
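Subconfluent (~70%) IOBA-NHC conjunctival cells, passages 50–80, seeded ~10,000/well and grown 24 h at 37 °C in supplemented DMEM/F12 with 10% FBS. Exposed to peptide at 0.22–225 μM; cytotoxicity followed over time by MultiTox-Fluor […] fluorescence (ex 485/em 520 nm).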

As for `C[C@@H]1C/C=C/C=C/C=C/C=C/[C@H](O[C@@H]2O[C@H](C)[C@@H](O)[C@H](N)[C@@H]2O)C[C@@H]2O[C@](O)(C[C@@H](O)C[C@H]3O[C@@H]3/C=C/C(=O)O1)C[C@H](O)[C@H]2C(=O)O` [Natamycin, reference compound], the concentration for 50% haemolysis (HC50) (usually the concentration that lyses half of the red blood cells) in the series with rabbit red blood cells (rabbit, 1 h) was 139.6 ± 0.18 µM. Also, in the series with fungi, the Activity entry is “Broad spectrum”. The MIC against C. albicans (Candida albicans, C. albicans DF2672R) worked out at 15 µM (≈ 9.99 µg/mL). For the same compound, the “time required to achieve similar endpoints (4 log reduction)” value in series [1] (ATCC strain, 16×MIC) came out at 24 h. Moreover, the fungicidal action result in series [1] (C. albicans DF2672R, 2×MIC, 24 h exposure) is reported as “no fungicidal action”.

Consider `C[C@@H]1[C@H](O)[C@@H](C)/C=C/C=C/C=C/C=C/C=C/C=C/C=C/[C@H](O[C@@H]2O[C@H](C)[C@@H](O)[C@H](N)[C@@H]2O)C[C@@H]2O[C@](O)(C[C@@H](O)C[C@@H](O)[C@H](O)CC[C@@H](O)C[C@@H](O)CC(=O)O[C@H]1C)C[C@H](O)[C@H]2C(=O)O` [Amphotericin B, reference compound], for which the HC50 with rabbit red blood cells amounted to 59.4 ± 7.8 µM. In addition, the Activity result in the series with fungi was “Broad spectrum; also recorded: Excellent agains Aspergilus & Candida”. The “MIC for two C. albicans clinical isolates” value against C. albicans (two C. albicans clinical isolates) is 1.4 µM. Moreover, the EC50 with IOBA-NHC cells is 134 ± 16 µM. Also, in series [1] (C. albicans DF2672R, 16×MIC), the “time to maximal effect” value is “less than 8 h”.
